Laboratory results: PMC9735621, “Synthesis, Biological Evaluation and Computational Studies of New Hydrazide Derivatives Containing 1,3,4-Oxadiazole as Antitubercular Agents” (International Journal of Molecular Sciences, 2022)
Where “and” joins values, the source holds several entries; their conditions need not be identical. Equal entries are not always repeated.

What was measured:
Test in all cases: microbe, parasite or virus in culture
Assay type in all cases: cell-based
[1] = tested on: M. tuberculosis Rifa-R ATCC 35838; conditions: Mycobacterium tuberculosis, ATCC35838
[2] = tested on: M. tuberculosis INH-R ATCC35822; conditions: Mycobacterium tuberculosis
[3] = tested on: M. tuberculosis Pyr-R ATCC 35828; conditions: Mycobacterium tuberculosis, ATCC35828
[4] = tested on: M. tuberculosis Strepto-R ATCC 35820; conditions: Mycobacterium tuberculosis, ATCC35820

SMILES	MIC [1]	MIC [2]	MIC [3]	MIC [4]
Cc1ccc(C=NNC(=O)c2nnc(-c3ccccc3)o2)cc1 (mixture of isomers) [1j, (E/Z)-N’-(4-methylbenzyliden)-5-phenyl-1,3,4-oxadiazol-2-carbohydrazide]	> 64 µg/mL	> 64 µg/mL	16 µg/mL and 52.2 µM	> 64 µg/mL
O=C(N/N=C\c1ccccc1)c1nnc(-c2ccncc2)o1 [1a, (Z)-N’-benzyliden-5-(pyridin-4-yl)-1,3,4-oxadiazol-2-carbohydrazide]	> 64 µg/mL	> 64 µg/mL	> 64 µg/mL	> 64 µg/mL
O=C(N/N=C\c1ccc(Cl)cc1)c1nnc(-c2ccncc2)o1 [1b, (Z)-N’-(4-chlorobenzyliden)-5-(pyridin-4-yl)-1,3,4-oxadiazol-2-carbohydrazide]	> 64 µg/mL	> 64 µg/mL	> 64 µg/mL	> 64 µg/mL
Cc1ccc(/C=N\NC(=O)c2nnc(-c3ccncc3)o2)cc1 [1c, (Z)-N’-(4-methylbenzyliden)-5-(pyridin-4-yl)-1,3,4-oxadiazol-2-carbohydrazide]	> 64 µg/mL	> 64 µg/mL	> 64 µg/mL	> 64 µg/mL
O=C(N/N=C\c1ccc[nH]1)c1nnc(-c2ccncc2)o1 [1d, (Z)-N’-((1H-pyrrol-2-yl)methylen)-5-(pyridin-4-yl)-1,3,4-oxadiazol-2-carbohydrazide]	> 64 µg/mL	> 64 µg/mL	> 64 µg/mL	> 64 µg/mL
O=C(N/N=C\c1ccccn1)c1nnc(-c2ccncc2)o1 [1e, (Z)-N’-(pyridin-2-ylmethylen)-5-(pyridin-4-yl)-1,3,4-oxadiazol-2-carbohydrazide]	32 µg/mL and 108 µM	> 64 µg/mL	4 µg/mL and 13.6 µM	32 µg/mL and 108 µM
O=C(N/N=C\c1ccncc1)c1nnc(-c2ccncc2)o1 [1f, (Z)-5-(pyridin-4-yl)-N’-(pyridin-4-ylmethylen)-1,3,4-oxadiazol-2-carbohydrazide]	> 64 µg/mL	> 64 µg/mL	> 64 µg/mL	> 64 µg/mL
O=C(N/N=C\c1ccco1)c1nnc(-c2ccncc2)o1 [1g, (Z)-N’-(furan-2-ylmethylen)-5-(pyridin-4-yl)-1,3,4-oxadiazol-2-carbohydrazide]	> 64 µg/mL	> 64 µg/mL	> 64 µg/mL	> 64 µg/mL
O=C(N/N=C\c1ccccc1)c1nnc(-c2ccccc2)o1 [1h, (Z)-N’-benzyliden-5-phenyl-1,3,4-oxadiazol-2-carbohydrazide]	> 64 µg/mL	> 64 µg/mL	64 µg/mL and 196 µM	> 64 µg/mL
O=C(N/N=C\c1ccc(Cl)cc1)c1nnc(-c2ccccc2)o1 [1i, (Z)-N’-(4-chlorobenzyliden)-5-phenyl-1,3,4-oxadiazol-2-carbohydrazide]	> 64 µg/mL	> 64 µg/mL	32 µg/mL and 97.8 µM	> 64 µg/mL
O=C(N/N=C\c1ccc[nH]1)c1nnc(-c2ccccc2)o1 [1k, (Z)-N’-((1H-pyrrol-2-yl)methylen)-5-phenyl-1,3,4-oxadiazol-2-carbohydrazide]	> 64 µg/mL	> 64 µg/mL	4 µg/mL and 14.1 µM	> 64 µg/mL
O=C(N/N=C\c1ccccn1)c1nnc(-c2ccccc2)o1 [1l, (Z)-5-phenyl-N’-(pyridin-2-ylmethylen)-1,3,4-oxadiazol-2-carbohydrazide]	32 µg/mL and 54.4 µM	> 64 µg/mL	4 µg/mL and 13.6 µM	64 µg/mL and 109 µM
O=C(N/N=C\c1ccncc1)c1nnc(-c2ccccc2)o1 [1m, (Z)-5-phenyl-N’-(pyridin-4-ylmethylen)-1,3,4-oxadiazol-2-carbohydrazide]	> 64 µg/mL	> 64 µg/mL	16 µg/mL and 54.8 µM	> 64 µg/mL
O=C(N/N=C\c1ccco1)c1nnc(-c2ccccc2)o1 [1n, (Z)-N’-(furan-2-ylmethylen)-5-phenyl-1,3,4-oxadiazol-2-carbohydrazide]	32 µg/mL and 103 µM	> 64 µg/mL	16 µg/mL and 56.6 µM	32 µg/mL and 103 µM
NNC(=O)c1ccncc1 [INH, Isoniazid, reference compound]	0.25 µg/mL and 1.8 µM	> 64 µg/mL	0.25 µg/mL and 1.8 µM	0.25 µg/mL and 1.8 µM
CO[C@H]1/C=C/O[C@@]2(C)Oc3c(C)c(O)c4c(O)c(c(/C=N/N5CCN(C)CC5)c(O)c4c3C2=O)NC(=O)/C(C)=C\C=C\[C@H](C)[C@H](O)[C@@H](C)[C@@H](O)[C@@H](C)[C@H](OC(C)=O)[C@@H]1C [RIF, reference compound]	> 64 µg/mL	0.25 µg/mL and 0.3 µM	0.25 µg/mL and 0.3 µM	0.25 µg/mL and 0.3 µM
